Experimental data taken from PubChem BioAssay AID1259407 (Chemical Carcinogenesis Research Information System (CCRIS), 2018).
Calls of active or inactive are those of the source. No rule for the calls is given here.

Tested on: CCRIS mutagenicity, Ames/micronucleus/aberration tests
Experiment: CCRIS mutagenicity studies
[1] = Test System: AMES SALMONELLA TYPHIMURIUM, Strain/Indicator: TA97, Metabolic Activation: HAMSTER, LIVER, S-9, AROCLOR 1254 (10%), Method: PREINCUBATION
[2] = Test System: AMES SALMONELLA TYPHIMURIUM, Strain/Indicator: TA97, Metabolic Activation: HAMSTER, LIVER, S-9, AROCLOR 1254 (30%), Method: PREINCUBATION
[3] = Test System: AMES SALMONELLA TYPHIMURIUM, Strain/Indicator: TA97, Metabolic Activation: NONE, Method: PREINCUBATION
[4] = Test System: AMES SALMONELLA TYPHIMURIUM, Strain/Indicator: TA97, Metabolic Activation: RAT, LIVER, S-9, AROCLOR 1254 (10%), Method: PREINCUBATION
[5] = Test System: AMES SALMONELLA TYPHIMURIUM, Strain/Indicator: TA97, Metabolic Activation: RAT, LIVER, S-9, AROCLOR 1254 (30%), Method: PREINCUBATION
[6] = Test System: AMES SALMONELLA TYPHIMURIUM, Strain/Indicator: TA98, Metabolic Activation: HAMSTER, LIVER, S-9, AROCLOR 1254 (10%), Method: PREINCUBATION
[7] = Test System: AMES SALMONELLA TYPHIMURIUM, Strain/Indicator: TA98, Metabolic Activation: HAMSTER, LIVER, S-9, AROCLOR 1254 (30%), Method: PREINCUBATION
[8] = Test System: AMES SALMONELLA TYPHIMURIUM, Strain/Indicator: TA98, Metabolic Activation: NONE, Method: PREINCUBATION
[9] = Test System: AMES SALMONELLA TYPHIMURIUM, Strain/Indicator: TA98, Metabolic Activation: RAT, LIVER, S-9, AROCLOR 1254 (10%), Method: PREINCUBATION
[10] = Test System: AMES SALMONELLA TYPHIMURIUM, Strain/Indicator: TA98, Metabolic Activation: RAT, LIVER, S-9, AROCLOR 1254 (30%), Method: PREINCUBATION
[11] = Test System: AMES SALMONELLA TYPHIMURIUM, Strain/Indicator: TA100, Metabolic Activation: HAMSTER, LIVER, S-9, AROCLOR 1254 (10%), Method: PREINCUBATION
[12] = Test System: AMES SALMONELLA TYPHIMURIUM, Strain/Indicator: TA100, Metabolic Activation: HAMSTER, LIVER, S-9, AROCLOR 1254 (30%), Method: PREINCUBATION
[13] = Test System: AMES SALMONELLA TYPHIMURIUM, Strain/Indicator: TA100, Metabolic Activation: NONE, Method: PREINCUBATION
[14] = Test System: AMES SALMONELLA TYPHIMURIUM, Strain/Indicator: TA100, Metabolic Activation: RAT, LIVER, S-9, AROCLOR 1254 (10%), Method: PREINCUBATION
[15] = Test System: AMES SALMONELLA TYPHIMURIUM, Strain/Indicator: TA100, Metabolic Activation: RAT, LIVER, S-9, AROCLOR 1254 (30%), Method: PREINCUBATION
[16] = Test System: AMES SALMONELLA TYPHIMURIUM, Strain/Indicator: TA1535, Metabolic Activation: HAMSTER, LIVER, S-9, AROCLOR 1254 (10%), Method: PREINCUBATION
[17] = Test System: AMES SALMONELLA TYPHIMURIUM, Strain/Indicator: TA1535, Metabolic Activation: HAMSTER, LIVER, S-9, AROCLOR 1254 (30%), Method: PREINCUBATION
[18] = Test System: AMES SALMONELLA TYPHIMURIUM, Strain/Indicator: TA1535, Metabolic Activation: NONE, Method: PREINCUBATION
[19] = Test System: AMES SALMONELLA TYPHIMURIUM, Strain/Indicator: TA1535, Metabolic Activation: RAT, LIVER, S-9, AROCLOR 1254 (10%), Method: PREINCUBATION
[20] = Test System: AMES SALMONELLA TYPHIMURIUM, Strain/Indicator: TA1535, Metabolic Activation: RAT, LIVER, S-9, AROCLOR 1254 (30%), Method: PREINCUBATION
[21] = Test System: AMES SALMONELLA TYPHIMURIUM, Strain/Indicator: TA1537, Metabolic Activation: NONE, Method: PREINCUBATION
[22] = Test System: AMES SALMONELLA TYPHIMURIUM, Strain/Indicator: TA98, Metabolic Activation: NONE, Method: STANDARD PLATE
[23] = Test System: AMES SALMONELLA TYPHIMURIUM, Strain/Indicator: TA100, Metabolic Activation: NONE, Method: STANDARD PLATE
[24] = Test System: AMES SALMONELLA TYPHIMURIUM, Strain/Indicator: TA102, Metabolic Activation: NONE, Method: STANDARD PLATE

CCCCCCCCCCCC(=O)N(CCO)CCO
mutagenic call (End Point: IN VITRO CHROMOSOMAL ABERRATIONS, Test System: CHO-LB CELLS, Metabolic Activation: NONE): inactive; negative | mutagenic call (End Point: IN VITRO CHROMOSOMAL ABERRATIONS, Test System: CHO-LB CELLS, Metabolic Activation: RAT, LIVER, S-9, AROCLOR 1254): inactive; negative | mutagenic call [1]: inactive; negative | mutagenic call [2]: inactive; negative | mutagenic call [3]: inactive; negative | mutagenic call [4]: inactive; negative | mutagenic call [5]: inactive; negative | mutagenic call [6]: inactive; negative | mutagenic call [7]: inactive; negative | mutagenic call [8]: inactive; negative | mutagenic call [9]: inactive; negative | mutagenic call [10]: inactive; negative | mutagenic call [11]: inactive; negative | mutagenic call [12]: inactive; negative | mutagenic call [13]: inactive; negative | mutagenic call [14]: inactive; negative | mutagenic call [15]: inactive; negative | mutagenic call [16]: inactive; negative | mutagenic call [17]: inactive; negative | mutagenic call [18]: inactive; negative | mutagenic call [19]: inactive; negative | mutagenic call [20]: inactive; negative

Cc1ccc(C#N)cc1
mutagenic call [1]: inactive; negative | mutagenic call [2]: inactive; negative | mutagenic call [3]: inactive; negative | mutagenic call [4]: inactive; negative | mutagenic call [5]: inactive; negative | mutagenic call [6]: inactive; negative | mutagenic call [7]: inactive; negative | mutagenic call [8]: inactive; negative | mutagenic call [9]: inactive; negative | mutagenic call [10]: inactive; negative | mutagenic call [11]: inactive; negative | mutagenic call [12]: inactive; negative | mutagenic call [13]: inactive; negative | mutagenic call [14]: inactive; negative | mutagenic call [15]: inactive; negative | mutagenic call [16]: inactive; negative | mutagenic call [17]: inactive; negative | mutagenic call [18]: inactive; negative | mutagenic call [19]: inactive; negative | mutagenic call [20]: inactive; negative

C[n+]1c2ccccc2cc2c(N)cccc21
mutagenic call [18]: inactive; negative | mutagenic call (Test System: AMES SALMONELLA TYPHIMURIUM, Strain/Indicator: TA1535, Metabolic Activation: RAT, LIVER, S-9, TETRACHLOROBIPHENYL, Method: PREINCUBATION): inactive; negative | mutagenic call [21]: active; positive | mutagenic call (Test System: AMES SALMONELLA TYPHIMURIUM, Strain/Indicator: TA1537, Metabolic Activation: RAT, LIVER, S-9, TETRACHLOROBIPHENYL, Method: PREINCUBATION): active; positive | mutagenic call (Test System: AMES SALMONELLA TYPHIMURIUM, Strain/Indicator: TA1538, Metabolic Activation: NONE, Method: PREINCUBATION): inactive; negative | mutagenic call (Test System: AMES SALMONELLA TYPHIMURIUM, Strain/Indicator: TA1538, Metabolic Activation: RAT, LIVER, S-9, TETRACHLOROBIPHENYL, Method: PREINCUBATION): inactive; negative | mutagenic call (Test System: AMES SALMONELLA TYPHIMURIUM, Strain/Indicator: TA1977, Metabolic Activation: NONE, Method: PREINCUBATION): active; positive

C=C(C)C(=O)OC(C)C
mutagenic call [6]: inactive; negative | mutagenic call [8]: inactive; negative | mutagenic call [9]: inactive; negative | mutagenic call [11]: inactive; negative | mutagenic call [13]: inactive; negative | mutagenic call [14]: inactive; negative | mutagenic call [16]: inactive; negative | mutagenic call [18]: inactive; negative | mutagenic call [19]: inactive; negative | mutagenic call (Test System: AMES SALMONELLA TYPHIMURIUM, Strain/Indicator: TA1537, Metabolic Activation: HAMSTER, LIVER, S-9, AROCLOR 1254 (10%), Method: PREINCUBATION): inactive; negative | mutagenic call [21]: inactive; negative | mutagenic call (Test System: AMES SALMONELLA TYPHIMURIUM, Strain/Indicator: TA1537, Metabolic Activation: RAT, LIVER, S-9, AROCLOR 1254 (10%), Method: PREINCUBATION): inactive; negative

COc1cccc2c1C(=O)c1c(O)c3c(c(O)c1C2=O)C[C@@](O)(C(=O)CO)C[C@@H]3O[C@H]1C[C@H](N)[C@@H](O)[C@H](C)O1
mutagenic call (Test System: AMES SALMONELLA TYPHIMURIUM, Strain/Indicator: TA97, Metabolic Activation: NONE, Method: STANDARD PLATE): inactive; negative | mutagenic call [22]: active; positive | mutagenic call [23]: inactive; negative | mutagenic call [24]: active; positive | mutagenic call (Test System: AMES SALMONELLA TYPHIMURIUM, Strain/Indicator: TA104, Metabolic Activation: NONE, Method: STANDARD PLATE): inactive; negative | mutagenic call (Test System: AMES SALMONELLA TYPHIMURIUM, Strain/Indicator: TA2637, Metabolic Activation: NONE, Method: STANDARD PLATE): active; positive

N#[N+]c1ccc(CO)cc1
mutagenic call [24]: active; positive | mutagenic call (Test System: CHINESE HAMSTER V-79, Strain/Indicator: V-79/6-THIOGUANINE, Metabolic Activation: NONE): active; positive

Cc1ccc(C)c2c1[nH]c1ccccc12
mutagenic call [22]: inactive; negative | mutagenic call (Test System: AMES SALMONELLA TYPHIMURIUM, Strain/Indicator: TA98, Metabolic Activation: RAT LIVER S-9, AROCLOR 1254, Method: STANDARD PLATE): active; positive | mutagenic call [23]: inactive; negative | mutagenic call (Test System: AMES SALMONELLA TYPHIMURIUM, Strain/Indicator: TA100, Metabolic Activation: RAT LIVER S-9, AROCLOR 1254, Method: STANDARD PLATE): inactive; negative

CCN(COC(C)=O)N=O
mutagenic call (Test System: UDS RAT UROTHELIAL CELLS, Strain/Indicator: THY INCORP, Metabolic Activation: NONE): active; positive
